# Patent US8076352B2, “Administration of carboline derivatives useful in the treatment of cancer and other diseases” (PTC Therapeutics, Inc., priority 2004, dated 2011)
# Test system: hypoxia-inducible endogenous VEGF expression in HeLa cells
# Assay: Hypoxia-inducible endogenous VEGF expression, VEGF ELISA of conditioned media (dose-response EC50)
# Assay type: cell-based
# Conditions: HeLa cells, hypoxic conditions (1% O2)
# Outline: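 Secreted VEGF was quantified by ELISA against a per-assay standard curve after HeLa cells spent 24-48 h in 1% O2, 5% CO2, N2 balance with or without compound. Across a series of, e.g., seven concentrations, percentage inhibition (max 100%, min 0%) gave EC50 and CC50 values.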
row,EC50 [µM],Structure (SMILES)
1,< 0.008,O=C(Oc1ccc(F)cc1)N1CCc2c([nH]c3ccc(Br)cc23)C1c1ccc(C(F)(F)F)cc1 (stereo not shown) [Compound 426]
2,< 0.008,Cc1ccc(C2c3[nH]c4ccc(Br)cc4c3CCN2C(=O)Oc2ccc(F)cc2)cc1 (stereo not shown) [Compound 403]
3,< 0.008,O=C(Oc1ccc(Cl)cc1)N1CCc2c([nH]c3ccc(Br)cc23)C1c1ccc(C(F)(F)F)cc1 (stereo not shown) [Compound 570]

# Same assay, conditions: Homo sapiens, HeLa cells under hypoxic conditions
row,Structure (SMILES),EC50 [µM]
1,O=C(O)C1Cc2c([nH]c3ccccc23)C(c2ccccc2)N1 (stereo not shown) [Compound 314],> 1
2,Brc1ccc(C2NCCc3c2[nH]c2ccc(Br)cc32)cc1 (stereo not shown) [Compound 157],0.04 to 0.2
3,Clc1ccc2[nH]c3c(c2c1)CCNC3c1ccc(-n2ccnc2)cc1 (stereo not shown) [Compound 277],> 1
4,ON1CCc2c([nH]c3ccc(Br)cc23)C1c1cccc(F)c1F (stereo not shown) [Compound 73],0.008 to 0.04
5,CN(C)c1ncc(C2c3[nH]c4ccc(Br)cc4c3CCN2c2ncccn2)cn1 (stereo not shown) [Compound 394],< 0.008
6,O=C(Oc1ccc(Cl)cc1)N1CCc2c([nH]c3ccc(Cl)cc23)C1c1ccc(OCCCn2cncn2)cc1 (stereo not shown) [Compound 391],< 0.008
7,Oc1ccccc1C1NCCc2c1[nH]c1ccc(Br)cc21 (stereo not shown) [Compound 378],> 1
8,COc1ccc(C2c3[nH]c4ccc(F)cc4c3CCN2C(=O)NC2CCCCC2)cc1 (stereo not shown) [Compound 283],> 1
9,CC(=O)Nc1ccc(C2NCCc3c2[nH]c2ccc(Cl)cc32)cc1 (stereo not shown) [Compound 294],> 1
10,COc1ccc(C2c3[nH]c4ccc(F)cc4c3CCN2C(=S)NC2CCCCC2)cc1 (stereo not shown) [Compound 242],> 1
11,Clc1ccc2[nH]c3c(c2c1)CCN(Cc1ccco1)C3c1nccs1 (stereo not shown) [Compound 267],> 1
12,COc1cccc(C2NCCc3c2[nH]c2ccc(Br)cc32)c1O (stereo not shown) [Compound 377],> 1

# Second part, the molecule after the results:
row,EC50 [µM],Structure (SMILES)
1,0.008 to 0.04,CCOC(=O)N1CCc2c([nH]c3ccc(Cl)cc23)C1c1cccc(OC)c1 (stereo not shown) [Compound 107]
2,0.008 to 0.04,COc1cccc(C2c3[nH]c4ccc(Cl)cc4c3CCN2C(=O)OC(C)C)c1 (stereo not shown) [Compound 88]
3,0.04 to 0.2,COc1ccc(C2c3[nH]c4ccc(Cl)cc4c3CCN2C(=O)c2ccc(F)c(F)c2F)cc1 (stereo not shown) [Compound 373]
4,0.008 to 0.04,COCCOC(=O)N1CCc2c([nH]c3ccc(Cl)cc23)C1c1ccc(OCCCn2ccnc2)cc1 (stereo not shown) [Compound 385]
5,> 1,COCCOCC(=O)N1CCc2c([nH]c3ccc(Br)cc23)C1c1ccc(Cl)cc1 (stereo not shown) [Compound 238]
6,< 0.008,COc1ccc(C2c3[nH]c4ccc(Cl)cc4c3CCN2C(=S)SC)cc1 (stereo not shown) [Compound 384]
7,< 0.008,CCOC(=O)N1CCc2c([nH]c3ccc(Cl)cc23)C1c1ccccc1 (stereo not shown) [Compound 38]
8,> 1,Cc1cccc(C2NCCc3c2[nH]c2ccc(Cl)cc32)c1 (stereo not shown) [Compound 286]
9,0.04 to 0.2,CCOC(=O)N1CCc2c([nH]c3ccc(Cl)cc23)C1c1ccc(S(C)(=O)=O)cc1 (stereo not shown) [Compound 358]
10,0.008 to 0.04,CC(C)c1ccc(C2c3[nH]c4ccc(Cl)cc4c3CCN2c2ncccn2)cc1 (stereo not shown) [Compound 352]
11,0.008 to 0.04,COc1ccc(C2c3[nH]c4ccc(Cl)cc4c3CCN2C(=O)CCCl)cc1 (stereo not shown) [Compound 367]
12,0.008 to 0.04,CCOC(=O)N1CCc2c([nH]c3ccc(Cl)cc23)C1c1ccc(Br)cc1 (stereo not shown) [Compound 54]
13,> 1,CCOC(=O)N1CCc2c([nH]c3ccc(Cl)cc23)C1CC (stereo not shown) [Compound 240]
14,< 0.008,Cc1ccc(C2c3[nH]c4ccc(Cl)cc4c3CCN2C(=O)OC(C)C)cc1 (stereo not shown) [Compound 36]
15,< 0.008,CCOC(=O)N1CCc2c([nH]c3ccc(Br)cc23)C1c1ccc(Cl)cc1 (stereo not shown) [Compound 4]
16,< 0.008,N#Cc1ccc(C2c3[nH]c4ccc(Cl)cc4c3CCN2C(=O)Oc2ccc(Cl)cc2)cc1 (stereo not shown) [Compound 350]
17,0.008 to 0.04,CCCOC(=O)N1CCc2c([nH]c3ccc(Cl)cc23)C1c1cccc(C(F)(F)F)c1 (stereo not shown) [Compound 79]
18,0.008 to 0.04,CCCOC(=O)N1CCc2c([nH]c3ccc(Cl)cc23)C1c1ccc(Cl)cc1 (stereo not shown) [Compound 49]
19,0.2 to 1,CCC(C)NC(=S)N1CCc2c([nH]c3ccc(Cl)cc23)C1c1ccc(C(C)C)cc1 (stereo not shown) [Compound 336]
20,0.2 to 1,CCOC(=O)Oc1cccc(C2c3[nH]c4ccc(Cl)cc4c3CCN2C(=O)OCC)c1 (stereo not shown) [Compound 175]
21,0.2 to 1,COc1ccc(NC(=O)N2CCc3c([nH]c4ccc(Cl)cc34)C2c2ccc(OC)cc2)cc1 (stereo not shown) [Compound 186]

# Same assay, conditions: Homo sapiens, HeLa cells, hypoxic conditions (1% O2)
row,Structure (SMILES),EC50 [µM]
1,O=C(Oc1ccc(Cl)cc1)N1CCc2c([nH]c3ccc(Cl)cc23)C1c1ccc(OCCCCN2CCCCC2)cc1 (stereo not shown) [Compound 703],0.008 to 0.04
2,CN1CCN(CCCCCCOc2ccc(C3c4[nH]c5ccc(Cl)cc5c4CCN3C(=O)Oc3ccc(Cl)cc3)cc2)CC1 (stereo not shown) [Compound 788],0.008 to 0.04
3,CCCC1c2[nH]c3ccc(Cl)cc3c2CCN1C(=O)OCC (stereo not shown) [Compound 510],0.04 to 0.2
4,COCCOCCOc1ccc(C2c3[nH]c4ccc(Cl)cc4c3CCN2C(=O)Oc2ccc(Cl)cc2)cc1 (stereo not shown) [Compound 675],0.008 to 0.04
5,CN(C)CC(=O)Nc1ccc(C2c3[nH]c4ccc(Cl)cc4c3CCN2C(=O)Oc2ccc(Cl)cc2)cc1 (stereo not shown) [Compound 491],0.04 to 0.2
6,CCOC(=O)N1CCc2c([nH]c3ccc(Br)cc23)C1c1ccc(C(=O)N2CCN(CC)CC2)cc1 (stereo not shown) [Compound 425],< 0.008
7,O=C(Oc1ccc(F)cc1)N1CCc2c([nH]c3ccc(Cl)cc23)C1c1ccc(OCCCCCCNCCO)cc1 (stereo not shown) [Compound 772],< 0.008
8,CCOC(=O)N1CCc2c([nH]c3ccc(Cl)cc23)C1c1ccc(C(=O)N2CCN(C3CCCCC3)CC2)cc1 (stereo not shown) [Compound 481],0.04 to 0.2
9,O=C(Oc1ccc(F)cc1)N1CCc2c([nH]c3ccc(Cl)cc23)C1c1ccc(OCC(O)CN2CCOCC2)cc1 (stereo not shown) [Compound 638],< 0.008
10,CCOC(=O)N1CCc2c([nH]c3ccc(Br)cc23)C1c1ccc(C(=O)N2CCN(CCO)CC2)cc1 (stereo not shown) [Compound 466],0.008 to 0.04
11,CSC(C)CC1NCCc2c1[nH]c1ccc(Cl)cc21 (stereo not shown) [Compound 568],> 1
12,COCCCNCCCCCCOc1ccc(C2c3[nH]c4ccc(Cl)cc4c3CCN2C(=O)Oc2ccc(F)cc2)cc1 (stereo not shown) [Compound 775],< 0.008
13,O=C(Oc1ccc(Cl)cc1)N1CCc2c([nH]c3ccc(Cl)cc23)C1c1ccc(OCCCCn2cncn2)cc1 (stereo not shown) [Compound 706],< 0.008
14,CC(CC1NCCc2c1[nH]c1ccc(Cl)cc21)c1ccccc1 (stereo not shown) [Compound 532],0.2 to 1
15,CCOC(=O)N1CCc2c([nH]c3ccc(Br)cc23)C1c1ccc(C(=O)NCCO)cc1 (stereo not shown) [Compound 490],0.04 to 0.2
16,COc1ccc(C2c3[nH]c4ccc(OCc5ccccc5)cc4c3CCN2C(=O)Oc2ccc(Cl)cc2)cc1 (stereo not shown) [Compound 616],0.2 to 1
17,CC(C)NCCCCCCOc1ccc(C2c3[nH]c4ccc(Cl)cc4c3CCN2C(=O)Oc2ccc(Cl)cc2)cc1 (stereo not shown) [Compound 784],< 0.008
18,O=C(Oc1ccc(Cl)cc1)N1CCc2c([nH]c3ccc(Br)cc23)C1c1ccc(C(F)(F)F)cc1 (stereo not shown) [Compound 405],< 0.008

# The remaining lines, values ahead:
row,EC50 [µM],Structure (SMILES)
1,0.2 to 1,O=C(Oc1ccc(Cl)cc1)N1CCc2c([nH]c3ccc(Cl)cc23)C1c1ccc(OCCO)cc1 (stereo not shown) [Compound 571]
2,0.008 to 0.04,CN(C)CCCOc1ccc(C2c3[nH]c4ccc(Cl)cc4c3CCN2C(=O)OCCF)cc1 (stereo not shown) [Compound 456]
3,0.04 to 0.2,CCOC(=O)N1CCc2c([nH]c3ccc(Cl)cc23)C1c1ccc(C(=O)N2CCCN(C)CC2)cc1 (stereo not shown) [Compound 514]
4,0.008 to 0.04,O=C(Oc1ccc(Cl)cc1)N1CCc2c([nH]c3ccc(Cl)cc23)C1c1ccc(F)cc1 (stereo not shown) [Compound 444]
5,< 0.008,C=CCOc1ccc(C2c3[nH]c4ccc(Cl)cc4c3CCN2C(=O)OC(C)C)cc1 (stereo not shown) [Compound 408]
6,0.2 to 1,CCOC(=O)N1CCc2c([nH]c3ccc(Cl)cc23)C1C(C)Cc1ccc(C(C)(C)C)cc1 (stereo not shown) [Compound 528]
7,< 0.008,C=CCOc1ccc(C2c3[nH]c4ccc(Cl)cc4c3CCN2C(=O)OCCF)cc1 (stereo not shown) [Compound 399]
8,0.04 to 0.2,CN(C)c1ncc(C2c3[nH]c4ccc(Cl)cc4c3CCN2C(=O)Oc2ccc(Cl)cc2)cn1 (stereo not shown) [Compound 475]
9,0.04 to 0.2,CC(C)C(=O)Nc1ccc(C2c3[nH]c4ccc(Cl)cc4c3CCN2C(=O)Oc2ccc(Cl)cc2)cc1 (stereo not shown) [Compound 482]
10,< 0.008,C=CCOc1ccc(C2c3[nH]c4ccc(Cl)cc4c3CCN2C(=O)Oc2ccc(OC)cc2)cc1 (stereo not shown) [Compound 432]
11,0.2 to 1,CCOC(=O)N1CCc2c([nH]c3ccc(Cl)cc23)C1c1cccc(C(=O)N2CCN(CC)CC2)c1 (stereo not shown) [Compound 525]
12,0.008 to 0.04,O=C(Oc1ccccc1)N1CCc2c([nH]c3ccc(Cl)cc23)C1c1ccc(OCC(O)CO)cc1 (stereo not shown) [Compound 626]
13,0.04 to 0.2,COCCOCCOc1ccc(C2c3[nH]c4ccc(Cl)cc4c3CCN2C(=O)Oc2ccc(OC)cc2)cc1 (stereo not shown) [Compound 678]
14,0.008 to 0.04,CC(C)OC(=O)N1CCc2c([nH]c3ccc(Cl)cc23)C1c1ccc(OCCCN(C)C)cc1 (stereo not shown) [Compound 459]

# Same assay, conditions: Homo sapiens, HeLa cells, hypoxic conditions (1% O2, 5% CO2)
row,Structure (SMILES),EC50 [µM]
1,O=C(Oc1ccccc1)N1CCc2c([nH]c3ccc(Cl)cc23)C1c1ccc(OCCCn2ccnc2)cc1 (stereo not shown) [Compound 911],< 0.008
2,COCCN(C)CC(O)COc1ccc(C2c3[nH]c4ccc(Cl)cc4c3CCN2C(=O)Oc2ccc(Cl)cc2)cc1 (stereo not shown) [Compound 964],0.008 to 0.04
3,COc1ccc(OC(=O)N2CCc3c([nH]c4ccc(Cl)cc34)C2c2ccc(OCC3CCCN(C)C3)cc2)cc1 (stereo not shown) [Compound 981],0.04 to 0.2
4,O=C(Oc1ccc(Cl)cc1)N1CCc2c([nH]c3ccc(Cl)cc23)C1c1ccc(OCC(O)Cn2ccnc2)cc1 (stereo not shown) [Compound 867],0.008 to 0.04
5,O=C(Oc1ccc(Cl)cc1)N1CCc2c([nH]c3ccc(Cl)cc23)C1c1ccc(OCCCN2CCOCC2)cc1 (stereo not shown) [Compound 894],< 0.008
6,O=C(Oc1ccccc1Cl)N1CCc2c([nH]c3ccc(Cl)cc23)C1c1ccc(OCCCn2cncn2)cc1 (stereo not shown) [Compound 926],< 0.008

# More lines, now with the values ahead:
row,EC50 [µM],Structure (SMILES)
1,0.04 to 0.2,CS(=O)(=O)Nc1ccc(C2c3[nH]c4ccc(Cl)cc4c3CCN2C(=O)Oc2ccc(Cl)cc2)cc1 (stereo not shown) [Compound 974]
2,< 0.008,Cc1ccc(OC(=O)N2CCc3c([nH]c4ccc(Cl)cc34)C2c2ccc(OCCCCl)cc2)cc1 (stereo not shown) [Compound 915]
